The text below walks through data of patent US8093252B2, “Crystalline polymorphic form of glucokinase activator” (AstraZeneca AB, priority 2009, dated 2012).

For data set [1] the following is noted: dihydrate from slurry of the compound in water, disclosed in WO 2007/007041; cited from earlier work.
Data set [2] is described as follows: relative stability of the crystalline forms of the compound. It counts as physicochemical. The following applies: crystalline form prepared from isopropyl alcohol (IPA).

Take `COC[C@H](C)Oc1cc(Oc2cnc(C(=O)N3CCC3)cn2)cc(C(=O)Nc2cnc(C)cn2)c1` [Form 3, 3-{[5-(azetidin-1-ylcarbonyl)pyrazin-2-yl]oxy}-5-{[(1S)-1-methyl-2-(methyloxy)ethyl]oxy}-N-(5-methylpyrazin-2-yl)benzamide]: the “stability of crystalline form in the presence of water” value in data set [1] was “most stable”.
For the compound `COC[C@H](C)Oc1cc(Oc2cnc(C(=O)N3CCC3)cn2)cc(C(=O)Nc2cnc(C)cn2)c1` [Form 6, 3-{[5-(azetidin-1-ylcarbonyl)pyrazin-2-yl]oxy}-5-{[(1S)-1-methyl-2-(methyloxy)ethyl]oxy}-N-(5-methylpyrazin-2-yl)benzamide], the “stability of crystalline form relative to the other forms” value in data set [2] was “more stable”.
